In patent US11091497B2, “Pyrano[3,4-b]pyrazine kappa opioid receptor ligands for treating addiction, pruritus, pain, and inflammation” (The Rockefeller University, priority 2017, dated 2021):
Read-outs that look alike come from different tables or passages of the source.

How the values were obtained:
[1] = target: T1, kappa opioid receptor (PathHunter U2OS hOPRK1 membranes) (Homo sapiens, UniProt P41145); assay: Tritiated U69,593 binding for KOP-R membranes
T1 construct: host or cells: U2OS (PathHunter U2OS hOPRK1 β-arrestin cell line)
T1 sequence (P41145 whole entry): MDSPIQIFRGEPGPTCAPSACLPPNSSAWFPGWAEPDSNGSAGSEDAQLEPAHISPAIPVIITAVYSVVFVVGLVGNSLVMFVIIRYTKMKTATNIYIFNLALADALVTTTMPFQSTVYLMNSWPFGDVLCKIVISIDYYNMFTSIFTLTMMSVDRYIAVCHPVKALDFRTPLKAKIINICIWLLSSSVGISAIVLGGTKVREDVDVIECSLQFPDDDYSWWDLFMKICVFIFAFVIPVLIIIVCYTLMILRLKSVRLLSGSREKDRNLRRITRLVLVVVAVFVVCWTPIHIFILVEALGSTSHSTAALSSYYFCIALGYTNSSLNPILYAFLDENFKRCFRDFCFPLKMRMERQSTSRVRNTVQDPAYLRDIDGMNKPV
Protocol: Tritiated U69,593 binding for KOP-R membranes; tritiated DAMGO binding for MOP-R membranes; and tritiated DPDPE binding for DOP-R membranes:
(§1) Membranes from cells stably expressing kappa, mu or delta opioid receptor constructs (PathHunter U2OS hOPRK1, CHO-K1 rOPRM1 and CHO-K1 OPRD1 β-arrestin cell line, DiscoverX, Fremont, Calif., USA) were used. Cells were scraped from tissue culture plates, homogenized with a tissue tearor homogenizer in membrane buffer (10 mM Tris, 100 mM NaCl, and 1 mM EDTA; pH 7.4), and centrifuged at 20,000 g for 30 minutes at 4° C. and frozen at −80° C. until use. Prior to use, the pellets were resuspended in binding buffer (50 mm Tris, 100 mm NaCl, pH 7.4), homogenized with a dounce homogenizer and […] incubated with 1.0 nM of the appropriate tritiated ligand ([^3H]U69,593, [^3H]DAMGO or [^3H]DPDPE for kappa, mu or delta binding, respectively) and the appropriate concentration of compound for 60 minutes at 30° C. Membranes with bound tritiated ligand were collected on Whatman GF/B filter paper (Brandel, Gaithersburg, Md., USA) utilizing a Brandel harvester. Bound tritiated ligand was quantified using a TriCarb-2900TR scintillation counter (Packard, Downers Grove, Ill., USA) following addition of 4 ml ReadySafe scintillation fluid (Beckman Coulter, Indianapolis, Ind., USA). Compiled data for each compound was normalized to the maximal binding in the absence of compound, with non-specific binding subtracted. Curve fitting was done in Microcal Origin 17.0 software using logistic sigmoidal fit, to determine IC50. GTPgammaS Membranes from U2OS cells stably expressing human kappa opioid receptors were used. Cells were scraped from tissue culture plates, homogenized with a tissue tearor homogenizer in membrane buffer (10 mM Tris, 100 mM NaCl, and 1 mM EDTA; pH 7.4), and centrifuged at 20,000 g for 30 minutes at 4° C. and frozen at −80° C. until use. Prior to use, the pellets were resuspended in assay buffer (50 mm Tris, 100 mm NaCl, 5 mM MgCl2, and 1 mM EDTA; pH 7.4) and homogenized with a dounce homogenizer and 50 μg incubated with 0.1 nM [35 S]GTPγS, 10 nM GDP, and the appropriate concentration of agonist for 20 minutes at 30° C. To test inhibition, all samples were incubated with 100 nM U69,593 as well as the appropriate concentration of compound. Membranes with bound [35 S]GTPγS were collected on Whatman GF/B filter paper (Brandel, Gaithersburg, Md., USA) utilizing a Brandel harvester. Bound [35 S]GTPγS was quantified using a TriCarb-2900TR scintillation counter (Packard, Downers Grove, Ill., USA) following addition of 4 mL ReadySafe scintillation fluid (Beckman Coulter, Indianapolis, Ind., USA). […] NA indicates not applicable. For each compound, curve fitting was done in Microcal Origin 17.0 software using logistic sigmoidal fit, to determine EC50 and maximal percent stimulation, which in turn was normalized to the maximal percent stimulation of the test full agonist compound U69,593 to determine % efficacy. β2-Arrestin Experiments were conducted using the PathHunter Detection Kit obtained from DiscoverX. Cells stably expressing kappa, mu or delta opioid receptor constructs (PathHunter U2OS hOPRK1, CHO-K1 rOPRM1 and CHO-K1 OPRD1 β-arrestin cell line, DiscoverX, Fremont, Calif., USA) were plated in 96- or 384-well plates. Cells were stimulated with the compounds for 90 minutes at 37° C. To test inhibition, all samples were incubated with 100 nM U69,593 as well as the appropriate concentration of compound. Cells were then incubated for 60 minutes in the presence of galoctosidase substrate, yielding chemiluminescent product. Chemiluminescence was measured using a Synergy Neo microplate reader (BioTek, Winooski, Vt., USA). Antagonism assays were done in the same manner, in the presence of 300 nM U69,593, 1 μM DAMGO or 1 μM DPDPE for KOP-R, MOP-R or DOP-R assays, respectively. […] NA indicates not applicable. […]

[2] = target: T2, human kappa opioid receptors (Homo sapiens, UniProt P41145); assay: [35S]GTPγS stimulation, membranes from U2OS cells; type: biochemical; conditions: for Emax: read-out: GTPγS stimulation % efficacy
T2 construct: expressed in transfected cells; host or cells: U2OS
T2 sequence (P41145 whole entry): as above
Protocol: Membranes from cells stably expressing kappa, mu or delta opioid receptor constructs (PathHunter U2OS hOPRK1, CHO-K1 rOPRM1 and CHO-K1 OPRD1 β-arrestin cell line, DiscoverX, Fremont, Calif., USA) were used. Cells were scraped from tissue culture plates, homogenized with a tissue tearor homogenizer in membrane buffer (10 mM Tris, 100 mM NaCl, and 1 mM EDTA; pH 7.4), and centrifuged at 20,000 g for 30 minutes at 4° C. and frozen at −80° C. until use. Prior to use, the pellets were resuspended in binding buffer (50 mm Tris, 100 mm NaCl, pH 7.4), homogenized with a dounce homogenizer and […] incubated with 1.0 nM of the appropriate tritiated ligand ([^3H]U69,593, [^3H]DAMGO or [^3H]DPDPE for kappa, mu or delta binding, respectively) and the appropriate concentration of compound for 60 minutes at 30° C. Membranes with bound tritiated ligand were collected on Whatman GF/B filter paper (Brandel, Gaithersburg, Md., USA) utilizing a Brandel harvester. Bound tritiated ligand was quantified using a TriCarb-2900TR scintillation counter (Packard, Downers Grove, Ill., USA) following addition of 4 ml ReadySafe scintillation fluid (Beckman Coulter, Indianapolis, Ind., USA). Compiled data for each compound was normalized to the maximal binding in the absence of compound, with non-specific binding subtracted. Curve fitting was done in Microcal Origin 17.0 software using logistic sigmoidal fit, to determine IC50. GTPgammaS Membranes from U2OS cells stably expressing human kappa opioid receptors were used. Cells were scraped from tissue culture plates, homogenized with a tissue tearor homogenizer in membrane buffer (10 mM Tris, 100 mM NaCl, and 1 mM EDTA; pH 7.4), and centrifuged at 20,000 g for 30 minutes at 4° C. and frozen at −80° C. until use. Prior to use, the pellets were resuspended in assay buffer (50 mm Tris, 100 mm NaCl, 5 mM MgCl2, and 1 mM EDTA; pH 7.4) and homogenized with a dounce homogenizer and 50 μg incubated with 0.1 nM [35 S]GTPγS, 10 nM GDP, and the appropriate concentration of agonist for 20 minutes at 30° C. To test inhibition, all samples were incubated with 100 nM U69,593 as well as the appropriate concentration of compound. Membranes with bound [35 S]GTPγS were collected on Whatman GF/B filter paper (Brandel, Gaithersburg, Md., USA) utilizing a Brandel harvester. Bound [35 S]GTPγS was quantified using a TriCarb-2900TR scintillation counter (Packard, Downers Grove, Ill., USA) following addition of 4 mL ReadySafe scintillation fluid (Beckman Coulter, Indianapolis, Ind., USA). […] For each compound, curve fitting was done in Microcal Origin 17.0 software using logistic sigmoidal fit, to determine EC50 and maximal percent stimulation, which in turn was normalized to the maximal percent stimulation of the test full agonist compound U69,593 to determine % efficacy. β2-Arrestin Experiments were conducted using the PathHunter Detection Kit obtained from DiscoverX. Cells stably expressing kappa, mu or delta opioid receptor constructs (PathHunter U2OS hOPRK1, CHO-K1 rOPRM1 and CHO-K1 OPRD1 β-arrestin cell line, DiscoverX, Fremont, Calif., USA) were plated in 96- or 384-well plates. Cells were stimulated with the compounds for 90 minutes at 37° C. To test inhibition, all samples were incubated with 100 nM U69,593 as well as the appropriate concentration of compound. Cells were then incubated for 60 minutes in the presence of galoctosidase substrate, yielding chemiluminescent product. Chemiluminescence was measured using a Synergy Neo microplate reader (BioTek, Winooski, Vt., USA). Antagonism assays were done in the same manner, in the presence of 300 nM U69,593, 1 μM DAMGO or 1 μM DPDPE for KOP-R, MOP-R or DOP-R assays, respectively.

[3] = target: T3, kappa opioid receptor (PathHunter U2OS hOPRK1 β-arrestin cell line) (Homo sapiens, UniProt P41145); assay: β-arrestin coupling (PathHunter Detection Kit); type: cell-based; conditions: for Emax at 10 µM: U2OS
T3 construct: host or cells: U2OS (PathHunter U2OS hOPRK1 β-arrestin cell line)
T3 sequence (P41145 whole entry): as above
Protocol: as §1

[4] = read-out: β-arrestin coupling % efficacy at 10 μM
[5] = 1.0 nM [3H]U69,593, 60 minutes at 30° C., read-out: Binding IC50

Work on O=C(Cc1ccc(Cl)c(Cl)c1)N1CCN(CC2CCC2)[C@@H]2COC[C@H](N3CCCC3)[C@H]21 (racemic) [Example 5A55] yielded an IC50 [1] of 57 nM, an EC50 [2] of 21 nM and an Emax [2] of 67%. For the same compound, the Emax at 10 µM [3, 4] was 40%.

For Cc1ccc(CC(=O)N2CCN[C@@H]3COC[C@H](N4CCCC4)[C@H]32)cc1Cl (racemic) [Example 5A57], the IC50 [1] was 42 nM, the EC50 [2] was 62 nM and the Emax [2] was 98%. For the same compound, the Emax at 10 µM [3, 4] was 20%.

With Cc1cc(CC(=O)N2CCN[C@@H]3COC[C@H](N4CCCC4)[C@H]32)ccc1Cl (racemic) [Example 5A58] the IC50 [1, 5] was 116 nM, the EC50 [2] was 261 nM and the Emax [2] was 161%. For the same compound, the Emax at 10 µM [3, 4] was 20%.

With CCN(CC)[C@H]1COC[C@H]2NCCN(C(=O)Cc3ccc(Cl)c(Cl)c3)[C@@H]21 (racemic) [Example 5A64] the IC50 [1, 5] was 1920 nM, the EC50 [2] was 2120 nM and the Emax [2] was 68%. The “β-arrestin coupling % efficacy” value ([3]; maximal, normalized to U69,593, No stim = no stimulation at highest dose tested, 10,000 nM) was “No stim”.

O=C(Cc1ccc(Cl)c(F)c1)N1CCN[C@@H]2COC[C@H](N3CCCC3)[C@H]21 (racemic) [Example 5A65] was tested, and the IC50 [1] was 68 nM, the EC50 ([2]; 20 minutes at 30° C., read-out: GTPγS stimulation EC50) was 136 nM and the Emax [2] was 121%. For the same compound, the Emax at 10 µM [3, 4] was 20%.

Work on O=C(Cc1ccc(Cl)cc1)N1CCN[C@@H]2COC[C@H](N3CCCC3)[C@H]21 (racemic) [Example 5A66] yielded an IC50 [1, 5] of 456 nM, an EC50 [2] of 566 nM and an Emax [2] of 140%. It also gave an Emax at 10 µM [3, 4] of 20%.

In the case of COC(=O)N1CCN(C(=O)Cc2ccc(Cl)c(Cl)c2)[C@H]2[C@H]1COC[C@@H]2N1CCCC1 (racemic) [Example 5A67], the IC50 [1] is reported as 41 nM, the EC50 [2] is reported as 12 nM and the Emax [2] is reported as 85%. It also gave an EC50 [3] of 5200 nM and an Emax at 10 µM ([3]; read-out: β-arrestin coupling % efficacy) of 85%.

For O=C(Cc1ccc(Cl)c(Cl)c1)N1CCN(CC2CC2)[C@@H]2COC[C@H](N3CCCC3)[C@H]21 (racemic) [Example 5A70], the IC50 [1] was 71 nM, the EC50 [2] was 19 nM and the Emax [2] was 90%. For the same compound, the Emax at 10 µM [3, 4] was 50%.

With CCCN1CCN(C(=O)Cc2ccc(Cl)c(Cl)c2)[C@H]2[C@H]1COC[C@@H]2N1CCCC1 (racemic) [Example 5A72] the IC50 [1] was 26 nM, the EC50 [2] was 12 nM and the Emax [2] was 111%. For the same compound, the Emax at 10 µM [3, 4] was 50%.

O=C(Cc1cccc(Cl)c1)N1CCN[C@@H]2COC[C@H](N3CCCC3)[C@H]21 (single isomer, unassigned) [Example 5A24A] was tested, and the IC50 [1, 5] was 463 nM, the EC50 [2] was 384 nM and the Emax [2] was 115%. The Emax at 10 µM [3, 4] was 0%.

Work on O=C(Cc1cccc(Cl)c1)N1CCN[C@H]2COC[C@@H](N3CCCC3)[C@@H]21 (single isomer, unassigned) [Example 5A24B] yielded an IC50 [1, 5] of 1130 nM, an EC50 [2] of 1370 nM and an Emax [2] of 102%. It also gave an Emax at 10 µM [3, 4] of 0%.

CS(=O)(=O)N1CCN(C(=O)Cc2ccc(Cl)c(Cl)c2)[C@H]2[C@H]1COC[C@@H]2N1CCCC1 (single isomer, unassigned) [Example 5A44A] was tested, and the IC50 [1] was 5.4 nM, the EC50 [2] was 3.4 nM and the Emax [2] was 119%. It also gave an Emax at 10 µM [3, 4] of 80%.

CS(=O)(=O)N1CCN(C(=O)Cc2ccc(Cl)c(Cl)c2)[C@H]2[C@H](N3CCCC3)COC[C@@H]21 (single isomer, unassigned) [Example 5A44B] was tested, and the IC50 [1] was 18 nM, the EC50 [2] was 4.6 nM and the Emax [2] was 105%. It also gave an Emax at 10 µM [3, 4] of 70%.

Compound O=C(Cc1ccc(Cl)c(Cl)c1)N1CCN(S(=O)(=O)C2CC2)[C@@H]2COC[C@H](N3CCCC3)[C@H]21 (single isomer, unassigned) [Example 5A52A] has an IC50 [1] of 3.6 nM, an EC50 [2] of 1.7 nM and an Emax [2] of 119%. For the same compound, the Emax at 10 µM [3, 4] was 60%.

With O=C(Cc1ccc(Cl)c(Cl)c1)N1CCN(S(=O)(=O)C2CC2)[C@H]2COC[C@@H](N3CCCC3)[C@@H]21 (single isomer, unassigned) [Example 5A52B] the IC50 [1] was 27 nM, the EC50 [2] was 18 nM and the Emax [2] was 96%. The Emax at 10 µM [3, 4] was 25%.

O=C(Cc1ccc(Cl)c(Cl)c1)N1CCN(Cc2ccccc2)[C@@H]2COC[C@H](N3CCCC3)[C@H]21 (single isomer, unassigned) [Example 5A53A] was tested, and the IC50 [1] was 108 nM, the EC50 [2] was 18 nM and the Emax [2] was 80%. It also gave an Emax at 10 µM [3, 4] of 80%.
